In patent publication US11517629B2, “Methods of treating cells containing fusion genes by genomic targeting” (UNIVERSITY OF PITTSBURGH—OF THE COMMONWEALTH SYSTEM OF …, priority 2016, dated 2022):

Key:
PC3 BP = assay: TUNEL assay of xenografted cancers; format: in vivo, human; settings: PC3 BP clone containing TMEM135-CCDC67 breakpoint; FIG. 16B, treated with Ad-TC
Protocol: (§1) FIG. 16A-B. (A) Expression of Cas9^D10A and HSV1-tk in HUH7 or HEP3B tumors treated with Ad-TC or pAD5-Cas9^D10A-gRNAMAN2A1^int13-gRNAFER^int14/pAD-MAN2A1^int13-EGFP-tk-FER^int14 (Ad-MF). Green arrows indicate unstained mouse stromal cells. (B) Genome therapy induced apoptosis of xenografted cancers that contain fusion gene breakpoints. Terminal deoxynucleotidyl transferase (TdT) dUTP Nick-End Labeling (TUNEL) assays were performed on the PC3 BP, DU145 BP, PC3 CMV, DU145 CMV, or HUH7 xenografted cancers treated with either Ad-TC or Ad-MF.
(§2) Immunohistochemistry. Immunohistochemistry was performed as described previously 6 with antibodies specific for HSV-1 TK (1:100 dilution) or for Cas9 (1:100 dilution). The antibody was omitted in negative controls. The sections were then incubated with horseradish peroxidase conjugated anti-rabbit IgG for 30 minutes at room temperature (ABC kit from Vector Labs, Inc). Slides were then exposed to a 3,3′-diaminobenzidine solution to visualize immunostaining. Counterstaining was performed by incubating the slides in 1% Hematoxylin solution for 2 minutes at room temperature. The slides were then rinsed briefly in distilled water to remove excessive staining. The procedure of TUNEL assays is similar to that previously described (13).

DU145 BP = assay: TUNEL assay of xenografted cancers; format: in vivo, human; settings: DU145 BP clone containing TMEM135-CCDC67 breakpoint; FIG. 16B, treated with Ad-TC
Protocol: as §1, §2

## Nc1nc(O)c2ncn(COC(CO)CO)c2n1 [ganciclovir]
PC3 BP
  cell death observed by tunel staining: significant cell death
DU145 BP
  cell death observed by tunel staining: significant cell death
